The experiment deals with Human D1 Receptor (Homo sapiens (Human), UniProt P21728). Description: Human D1 receptor binding assay ([^3H]-SCH23390 competition). As to conditions: read-out: Human D1 Receptor Binding, Ki (nM), Geometric mean of 2-4 determinations (unless otherwise indicated). On the procedure: D1 binding assays were performed using over-expressing LTK human cell lines. […] These ligand and tissue concentrations were used in time course studies to determine linearity and equilibrium conditions for binding. […] The pellet was resuspended in assay buffer [50 mM Tris (pH 7.4@ RT) containing 4 mM MgSO4 and 0.5 mM EDTA]. […] Non-specific binding was determined by radioligand binding in the presence of a saturating concentration of (+)-Butaclamol (10 μM), a D1 antagonist. After a 30 minute incubation period at 37° C., assay samples were rapidly filtered through Unifilter-96 GF/B PEI-coated filter plates and rinsed with 50 mM Tris buffer (pH 7.4 at 4° C.). […] Ki values were calculated according to the Cheng-Prusoff equation: […]

Read-outs that look alike come from different tables or passages of the source.

Human D1 Receptor, sequence (P21728 whole entry): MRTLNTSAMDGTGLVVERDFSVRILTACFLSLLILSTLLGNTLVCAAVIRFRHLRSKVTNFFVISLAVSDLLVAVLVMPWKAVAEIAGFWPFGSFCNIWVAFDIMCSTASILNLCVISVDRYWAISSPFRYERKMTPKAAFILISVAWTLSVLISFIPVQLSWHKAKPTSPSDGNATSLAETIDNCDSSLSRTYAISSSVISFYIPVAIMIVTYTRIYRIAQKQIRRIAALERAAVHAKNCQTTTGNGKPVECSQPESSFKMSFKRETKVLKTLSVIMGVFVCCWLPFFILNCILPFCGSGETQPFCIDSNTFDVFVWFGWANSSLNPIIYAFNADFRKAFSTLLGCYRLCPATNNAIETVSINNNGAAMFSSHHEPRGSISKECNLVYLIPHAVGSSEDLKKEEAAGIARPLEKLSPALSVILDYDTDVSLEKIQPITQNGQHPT

For the compound `Cc1cc(Oc2ncnc3occc23)ccc1-c1c(C)ncnc1C` [Example 1, 4-[4-(4,6-dimethylpyrimidin-5-yl)-3-methylphenoxy]furo[2,3-d]pyrimidine], the Ki was determined as 166 nM. Take `Cc1cc(Oc2nccc3[nH]cnc23)ccc1-c1c(C)ncc2nccn12` [Example 2, 4-[3-methyl-4-(6-methylimidazo[1,2-a]pyrazin-5-yl)phenoxy]-1H-imidazo[4,5-c]pyridine]: the Ki came out at 374 nM.

Regarding `Cc1cc(Oc2nccc3sncc23)ccc1-c1c(C)n[nH]c(=O)c1C` [Example 10, 4,6-dimethyl-5-[2-methyl-4-([1,2]thiazolo[4,5-c]pyridin-4-yloxy)phenyl]pyridazin-3(2H)-one], the Ki (competition with 0.5 nM [^3H]-SCH23390, over-expressing LTK human cell lines, 30 min at 37° C., values marked ^a are from a single determination) was 32.7 nM.

Usually Ki stands for the dissociation constant of the complex between target and ligand, obtained from inhibition or displacement.

For the origin of these results see patent publication US9868744B2, “Heteroaromatic compounds and their use as dopamine D1 ligands” (PFIZER INC., priority 2014, dated 2018).
